This is an account of results in PubChem BioAssay AID248 (DTP/NCI, 2004).

The assay concerns L1210 leukemia ip in BDF1 mice, survival T/C. Briefly: NCI In Vivo Anticancer Drug Screen. Data for tumor model L1210 Leukemia (intraperitoneal) in B6D2F1 (BDF1) mice. The following applies: endpoint: mean survival time, higher = longer survival. In outline: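 Each compound was tested against a transplantable tumor grown in mice. The endpoint was survival, with treated animals benchmarked against vehicle controls as a simple ratio.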

The mark [1] stands for this setting: dose: 100.0 mg/kg/injection, schedule: Q04DX003 (ip), vehicle: Klucel (hydroxypropylcellulose) (HPC).
Where [2] appears, read: dose: 200.0 mg/kg/injection, schedule: Q04DX003 (ip), vehicle: Klucel (hydroxypropylcellulose) (HPC).
The mark [3] stands for this setting: dose: 400.0 mg/kg/injection, schedule: Q04DX003 (ip), vehicle: Klucel (hydroxypropylcellulose) (HPC).
Setting [4] is: dose: 50.0 mg/kg/injection, schedule: Q01DX009 (ip), vehicle: saline with Tween-80.
The mark [5] stands for this setting: dose: 100.0 mg/kg/injection, schedule: Q01DX009 (ip), vehicle: saline with Tween-80.
Setting [6] is: dose: 200.0 mg/kg/injection, schedule: Q01DX009 (ip), vehicle: saline with Tween-80.
Where [7] appears, read: dose: 100.0 mg/kg/injection, schedule: Q04DX002 (ip), vehicle: Klucel (hydroxypropylcellulose) (HPC).
Where [8] appears, read: dose: 25.0 mg/kg/injection, schedule: Q04DX003 (ip), vehicle: Klucel (hydroxypropylcellulose) (HPC).
Where [9] appears, read: dose: 50.0 mg/kg/injection, schedule: Q04DX003 (ip), vehicle: Klucel (hydroxypropylcellulose) (HPC).
Setting [10] is: dose: 100.0 mg/kg/injection, schedule: Q01DX001 (ip), vehicle: Klucel (hydroxypropylcellulose) (HPC).

“And” between values parts separate entries of the source, which are not always exact repeats. Equal values may be shown once. Toxic doses and inconclusive results are not listed. Peptide text beside a SMILES is read from it. * marks the point of attachment. Cbz = O=C(OCc1ccccc1)*; CH2Cl = ClC*

Take `Fc1c(Cl)c(Cl)c(Cl)c(Cl)c1Cl`: the T/C (dose: 100.0 mg/kg/injection, schedule: Q01DX009 (ip), vehicle: saline sonified) is 110 % of control; the T/C under setting [1] was 96 % of control; the T/C (dose: 200.0 mg/kg/injection, schedule: Q01DX009 (ip), vehicle: saline sonified) was 100 % of control; the T/C under setting [2] is 97 % of control; the T/C (dose: 400.0 mg/kg/injection, schedule: Q01DX009 (ip), vehicle: saline sonified) was 95 % of control; the T/C under setting [3] was 96 % of control.

As to `ClCc1ccc(CCl)c(Cl)c1Cl`, the T/C reads like this: (dose: 25.0 mg/kg/injection, schedule: Q01DX009 (ip), vehicle: saline with Tween-80) 105 % of control; under setting [4], 97 % of control; under setting [5], 93 % of control.

Consider `O=c1ccnc(C(F)(F)F)[nH]1`, for which the T/C runs as follows: (dose: 44.0 mg/kg/injection, schedule: Q01DX Z (ip), vehicle: methylcellulose (MC)) 87 % of control; (dose: 66.0 mg/kg/injection, schedule: Q01DX Z (ip), vehicle: methylcellulose (MC)) 96 % of control; (dose: 100.0 mg/kg/injection, schedule: Q01DX Z (ip), vehicle: methylcellulose (MC)) 101 % of control.

With `O=C(O)CCCCC(=O)c1cc(O)ccc1O`, the T/C under setting [1] was 102 % of control, the T/C under setting [2] is 104 % of control and the T/C under setting [3] was 102 % of control.

`CC(C)(C)N=C1OC(=O)c2ccccc21`: the T/C by setting is: under setting [5], 107 % of control; under setting [6], 98 % of control; (dose: 400.0 mg/kg/injection, schedule: Q01DX009 (ip), vehicle: saline with Tween-80) 94 % of control.

As to `Cc1nc2nc(C(F)(F)F)[nH]c2nc1C`, the T/C by setting is: under setting [4], 98 % of control; under setting [5], 96 % of control and 120 % of control; under setting [6], 101 % of control and 102 % of control.

Take `Cc1c2ccccc2[n+](C)c2ccc3ccccc3c12`: the T/C (dose: 75.0 mg/kg/injection, schedule: Q01DX001 (ip), vehicle: carboxymethylcellulose (CMC)) is 94 % of control; the T/C (dose: 150.0 mg/kg/injection, schedule: Q01DX001 (ip), vehicle: carboxymethylcellulose (CMC)) was 94 % of control; the T/C (dose: 300.0 mg/kg/injection, schedule: Q01DX001 (ip), vehicle: carboxymethylcellulose (CMC)) was 96 % of control.

For the molecule `CC(=O)NC(CO)C(=O)NCC(=O)NC(CCCN=C(N)N)C(N)=O` (stereo not drawn) (Ac-Ser-Gly-Arg-NH2; configuration not given here), the T/C is 100 % of control (dose: 25.0 mg/kg/injection, schedule: Q04DX002 (ip), vehicle: Klucel (hydroxypropylcellulose) (HPC)); 100 % of control (dose: 50.0 mg/kg/injection, schedule: Q04DX002 (ip), vehicle: Klucel (hydroxypropylcellulose) (HPC)); 100 % of control under setting [7].

With `Cc1c(Cl)cccc1-n1c(C)nc2ccccc2c1=O`, the T/C is 93 % of control (dose: 50.0 mg/kg/injection, schedule: Q01DX001 (ip), vehicle: carboxymethylcellulose (CMC)); 98 % of control (dose: 100.0 mg/kg/injection, schedule: Q01DX001 (ip), vehicle: carboxymethylcellulose (CMC)); 93 % of control (dose: 200.0 mg/kg/injection, schedule: Q01DX001 (ip), vehicle: carboxymethylcellulose (CMC)); 102 % of control (dose: 400.0 mg/kg/injection, schedule: Q01DX001 (ip), vehicle: carboxymethylcellulose (CMC)).

Consider `O=C(NC1CCCCC1)N(C1CCCCC1)C1CCCCC1`, for which the T/C by setting is: (dose: 100.0 mg/kg/injection, schedule: Q01DX009 (ip), vehicle: Klucel (hydroxypropylcellulose) (HPC)) 90 % of control; (dose: 200.0 mg/kg/injection, schedule: Q01DX009 (ip), vehicle: Klucel (hydroxypropylcellulose) (HPC)) 103 % of control; (dose: 400.0 mg/kg/injection, schedule: Q01DX009 (ip), vehicle: Klucel (hydroxypropylcellulose) (HPC)) 92 % of control.

`CC(C)=CCC/C(C)=C/COC(=O)C(CC=C(C)C)CCN1CCN(CC=C(C)C)CC1` (stereo not drawn): the T/C is 98 % of control under setting [5]; 88 % of control under setting [7]; 92 % of control under setting [6]; 92 % of control (dose: 200.0 mg/kg/injection, schedule: Q04DX002 (ip), vehicle: Klucel (hydroxypropylcellulose) (HPC)); 98 % of control (dose: 400.0 mg/kg/injection, schedule: Q04DX002 (ip), vehicle: Klucel (hydroxypropylcellulose) (HPC)).

As for `CC1(O)CCC2C3CCC4CC(=O)CCC4(C)C3(F)C(O)CC21C` (stereo not drawn), the T/C runs as follows: (dose: 100.0 mg/kg/injection, schedule: Q01DX009 (ip), vehicle: saline) 96 % of control; (dose: 200.0 mg/kg/injection, schedule: Q01DX009 (ip), vehicle: saline) 102 % of control; (dose: 400.0 mg/kg/injection, schedule: Q01DX009 (ip), vehicle: saline) 96 % of control.

As to `CC(C)CC(NC(=O)CNC(=O)OCc1ccccc1)C(=O)NC(Cc1ccccc1)C(=O)CCl` (stereo not drawn) (Cbz-Gly-Leu-Phe-CH2Cl; configuration not given here), the T/C by setting is: under setting [8], 102 % of control; under setting [9], 106 % of control; (dose: 75.0 mg/kg/injection, schedule: Q04DX003 (ip), vehicle: Klucel (hydroxypropylcellulose) (HPC)) 94 % of control and 90 % of control; under setting [10], 92 % of control; (dose: 200.0 mg/kg/injection, schedule: Q01DX001 (ip), vehicle: Klucel (hydroxypropylcellulose) (HPC)) 92 % of control.

For `O=C(CS(=O)(=O)O)c1ccc(Br)cc1`, the T/C (dose: 100.0 mg/kg/injection, schedule: Q04DX002 (ip), vehicle: saline with Tween-80) is 97 % of control; the T/C (dose: 200.0 mg/kg/injection, schedule: Q04DX002 (ip), vehicle: saline with Tween-80) is 97 % of control; the T/C (dose: 400.0 mg/kg/injection, schedule: Q04DX002 (ip), vehicle: saline with Tween-80) is 94 % of control.

With `O=C(c1ccccc1)c1c(-c2ccccc2)c(C(=O)c2ccccc2)c2ccccc2c1Cl`, the T/C is, setting by setting: (dose: 6.25 mg/kg/injection, schedule: Q01DX009 (ip), vehicle: water) 96 % of control; (dose: 12.5 mg/kg/injection, schedule: Q01DX009 (ip), vehicle: water) 97 % of control; (dose: 25.0 mg/kg/injection, schedule: Q01DX009 (ip), vehicle: water) 94 % of control and 117 % of control; (dose: 50.0 mg/kg/injection, schedule: Q01DX009 (ip), vehicle: water) 94 % of control and 97 % of control; (dose: 100.0 mg/kg/injection, schedule: Q01DX009 (ip), vehicle: water) 101 % of control; (dose: 200.0 mg/kg/injection, schedule: Q01DX009 (ip), vehicle: water) 101 % of control. The T/C (dose: 400.0 mg/kg/injection, schedule: Q01DX009 (ip), vehicle: water) is 97 % of control.

Regarding `O=C1c2cc(Br)ccc2-c2c(N=Cc3ccc4c(c3)OCO4)cc(Br)cc21`, the T/C is 95 % of control (dose: 100.0 mg/kg/injection, schedule: Q01DX001 (ip), vehicle: other); 103 % of control (dose: 200.0 mg/kg/injection, schedule: Q01DX001 (ip), vehicle: other); 106 % of control (dose: 400.0 mg/kg/injection, schedule: Q01DX001 (ip), vehicle: other).

Consider `Cc1cc(=O)[nH]c(N/N=C/c2cc(Cl)ccc2O)n1`, for which, under setting [4], the T/C was 87 % of control.

As to `COc1ccc(/C=C/c2cccc[n+]2C)cc1`, the T/C is, setting by setting: (dose: 12.5 mg/kg/injection, schedule: Q01DX009 (ip), vehicle: Klucel (hydroxypropylcellulose) (HPC)) 89 % of control; (dose: 12.5 mg/kg/injection, schedule: Q04DX003 (ip), vehicle: Klucel (hydroxypropylcellulose) (HPC)) 100 % of control; (dose: 25.0 mg/kg/injection, schedule: Q01DX009 (ip), vehicle: Klucel (hydroxypropylcellulose) (HPC)) 90 % of control; under setting [8], 94 % of control; under setting [9], 100 % of control.

With `CC1CN=C(c2ccc(NC(=O)c3ccc(C(=O)Nc4ccc(C5=NCC(C)CN5)cc4)nc3)cc2)NC1` (stereo not drawn), the T/C runs as follows: (dose: 2.0 mg/kg/injection, schedule: Q01DX001 (ip), vehicle: water) 97 % of control and 101 % of control; (dose: 4.0 mg/kg/injection, schedule: Q01DX001 (ip), vehicle: water) 101 % of control and 106 % of control; (dose: 4.0 mg/kg/injection, schedule: Q01DX015 (ip), vehicle: water) 250 % of control and 288 % of control; (dose: 6.0 mg/kg/injection, schedule: Q01DX001 (ip), vehicle: water) 106 % of control and 115 % of control.

For `Nc1nc(/C=C/C=C/c2ccccc2)c(CCCCc2ccccc2)c(=O)[nH]1`, the T/C (dose: 25.0 mg/kg/injection, schedule: Q01DX001 (ip), vehicle: Klucel (hydroxypropylcellulose) (HPC)) is 94 % of control; the T/C (dose: 50.0 mg/kg/injection, schedule: Q01DX001 (ip), vehicle: Klucel (hydroxypropylcellulose) (HPC)) is 98 % of control; the T/C under setting [10] was 96 % of control.
